# Measurements as given in article PMC3775761, “Structure-Activity Relationships of FMRF-NH2 Peptides Demonstrate A Role for the Conserved C Terminus and Unique N-Terminal Extension in Modulating Cardiac Contractility” (PLoS ONE, 2013).
# Where two headings read alike, the source gives them in different places.
# Columns and labels:
# [1] = test system: FMRFa-R; conditions: expressed FMRFa-R protein, cited from earlier work
# Method: In contrast, when the small, non-aromatic residue A was substituted for F, strong contacts which anchored FMRF-NH2 in the FMRFa-R binding pocket were lost, which substantially weakened ligand-receptor interactions (Figure 5, Tables 5 and 6). In addition, the F ... || Next, the effect of the analog SDNAMRF-NH2 was measured on heart rate at 1 µM. SDNAMRF-NH2 increased adult heart rate by 48±10%, a significant effect similar to SDNFMRF-NH2 (Figure 12, Table 14). The effect of the peptide analog was analyzed in adult because it is a developmental stage in which a robust response occurs which thus allows for subtle changes to be observed. […] Past studies analyzed the effects of some or all of these peptides in a bioassay; yet no report to date investigated th ...
# [2] = test system: adult, larval, and pupal heart; assay: in vivo semi-isolated heart rate assay; set-up: species or system Drosophila melanogaster; conditions: peptide 1 µM; for % increase in heart rate, Adult: adult heart (1 day adults); for % increase in heart rate, Adult / % increase in heart rate, Larval / % increase in heart rate, Pupal: maximum response within 10-minute recording, mean ± S.E.M., n≥6, basal heart rate = 100%; for % increase in heart rate, Larval: larval heart (wandering 3rd instar larvae); for % increase in heart rate, Pupal: pupal heart (white prepupae)
# Method: D. melanogaster Oregon R strain flies were maintained on cornmeal molasses media at 24°C under a 12 hour light/dark cycle. Animals analyzed were wandering 3rd instar larvae, white prepupae, and 1 day adults. The effects of peptides and physiological saline, the carrier, were measured on both females and males; no sex-specific response was observed. The in vivo semi-isolated heart rate assays were performed according to a previously reported protocol. The rate of heart contractions for each animal was measured prior to application of a peptide (1 µM) or saline, the carrier, to provide a measure of basal rate. Animals (n≥6) were used only once. During and after delivery of the peptide or saline, contractions were continuously recorded for a 10-minute time period. The data analyzed were the maximum responses within the 10-minute recording period reported as mean values ± S.E.M. Data are reported as % basal heart rate where the frequency of contractions before application of peptide or saline is considered a measure of the baseline or basal level. Effects of peptides were compared to saline using Single Factor ANOVA with significance set at p ≤ 0.01; a peptide was considered to be active if its effects were statistically different from saline. The statistical outcomes were identical when calculated using two different data packages, Microsoft Excel and IBM SPSS.
# [3] = Chinese hamster ovary cells, read-out: EC50, ligand-FMRFa-R binding
# [4] = read-out: EC50, peptides bind FMRFa-R
Substance,"EC50 [1, 3] [nM]","% increase in heart rate, Adult [2] [%]","% increase in heart rate, Larval [2] [%]","% increase in heart rate, Pupal [2] [%]","EC50 [1, 4] [nM]","heart rate return to baseline ([2]; pupal heart, recording period)"
AMRF-NH2 [analog replacing F1 with A],3220,–,–,–,–,–
DPKQDFMRF-NH2 [D. melanogaster FMRF-NH2 peptide encoded in dFMRFa],–,44±11,20±5,21±5,2,–
FMRF-NH2 [conserved C-terminal tetrapeptide; molluscan cardioexcitatory tetrapeptide],28,37±11,28±8,17±4,–,–
PDNFMRF-NH2 [D. melanogaster FMRF-NH2 peptide encoded in dFMRFa],–,51±12,26±5,27±7,1.8,did not return to baseline within the recording period
SDNAMRF-NH2 [designed analog of SDNFMRF-NH2 with F to A substitution],102,48±10,–,–,–,–
SDNFMRF-NH2 [D. melanogaster FMRF-NH2 peptide encoded in dFMRFa],1.9,39±11,24±8,15±4,–,–
SPKQDFMRF-NH2 [D. melanogaster FMRF-NH2 peptide encoded in dFMRFa],–,32±8,23±6,12±1,2.5,–
TPAEDFMRF-NH2 [D. melanogaster FMRF-NH2 peptide encoded in dFMRFa],–,40±2,20±4,26±8,2.8,–
YMRF-NH2 [analog in which Y replaced F1],31,–,–,–,–,–
